Test results from patent US10610520B2, “Heterocyclic compound” (Takeda Pharmaceutical Company Limited, priority 2016, dated 2020).

biological target: T1, His-hMAGL (recombinant polyhistidine tagged human MAGL protein) (Homo sapiens, UniProt Q99685); test: Measurement of MAGL inhibitory activity (arachidonic acid production from 2-arachidonylglycerol, RapidFire-mass spectrometry); assay type: biochemical; settings: MAGL inhibitory rate, test compound 10 μM, 60 min preincubation, 2-arachidonylglycerol substrate
T1 construct: made in house; host or cells: E. coli BL21(DE3)
T1 sequence (Q99685 1-303): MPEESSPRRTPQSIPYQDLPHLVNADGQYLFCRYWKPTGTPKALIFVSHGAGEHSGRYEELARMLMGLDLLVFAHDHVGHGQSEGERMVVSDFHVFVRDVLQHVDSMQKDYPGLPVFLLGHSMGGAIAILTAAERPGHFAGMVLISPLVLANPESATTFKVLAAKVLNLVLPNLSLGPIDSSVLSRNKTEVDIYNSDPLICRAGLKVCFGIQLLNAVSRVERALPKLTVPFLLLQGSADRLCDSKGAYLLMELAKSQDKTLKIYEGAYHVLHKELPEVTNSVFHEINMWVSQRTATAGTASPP
Procedure, shortened: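 Arachidonic acid formed was quantified by online solid-phase extraction and triple-quadrupole MS in negative SRM mode against a d8 internal standard. Reaction: recombinant His-hMAGL (7.5 ng/mL, pH 7.5 Tris buffer with Triton X-100 and BSA) plus 2-AG (5 μL of 150 μM stock) for 10 min at room temperature, quenched with 2% formic acid. Percent inhibition corrected for enzyme-free background.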

inhibition at 10 µM	Structure (SMILES)
99%	Cc1ccc(-c2ccc3c(Cl)c(C(=O)N4CC5(CCC(=O)N5)C4)sc3c2)s1 [Example 232, 2-((3-chloro-6-(5-methyl-2-thienyl)-1-benzothiophen-2-yl)carbonyl)-2,5-diazaspiro[3.4]octan-6-one]
101%	Cc1sccc1-c1ccc2c(Cl)c(C(=O)N3CC4(CCC(=O)N4)C3)sc2c1 [Example 234, 2-((3-chloro-6-(2-methyl-3-thienyl)-1-benzothiophen-2-yl)carbonyl)-2,5-diazaspiro[3.4]octan-6-one]
97%	O=C1CCC2(CN(C(=O)c3sc4cc(C(F)(F)F)ccc4c3F)C2)N1 [Example 238, 2-((3-fluoro-6-(trifluoromethyl)-1-benzothiophen-2-yl)carbonyl)-2,5-diazaspiro[3.4]octan-6-one]
100%	O=C1NC2(CO1)CN(C(=O)N1CCC(COc3ccc(F)cc3Cl)CC1)C2 [Example 240, 2-((4-((2-chloro-4-fluorophenoxy)methyl)piperidin-1-yl)carbonyl)-7-oxa-2,5-diazaspiro[3.4]octan-6-one]
100%	O=C1CCC2(CN(C(=O)N3CCC(C(F)(F)c4ccc(Cl)cc4Cl)CC3)C2)N1 [Example 244, 2-((4-((2,4-dichlorophenyl)(difluoro)methyl)piperidin-1-yl)carbonyl)-2,5-diazaspiro[3.4]octan-6-one]
98%	O=C1CCC2(CN(C(=O)c3sc4cc(Br)ccc4c3C3CC3)C2)N1 [Example 245, 2-((6-bromo-3-cyclopropyl-1-benzothiophen-2-yl)carbonyl)-2,5-diazaspiro[3.4]octan-6-one]
100%	O=C1CCC2(CN(C(=O)c3sc(-c4ccc(C5(C(F)(F)F)CC5)cc4)cc3Cl)C2)N1 [Example 247, 2-((3-chloro-5-(4-(1-(trifluoromethyl)cyclopropyl)phenyl)-2-thienyl)carbonyl)-2,5-diazaspiro[3.4]octan-6-one]
86%	O=C1CCC2(CN(C(=O)c3cc4cc(Br)ccc4s3)C2)N1 [Example 250, 2-((5-bromo-1-benzothiophen-2-yl)carbonyl)-2,5-diazaspiro[3.4]octan-6-one]
99%	O=C1CCC2(CN(C(=O)c3sc4cc(OC(F)(F)F)cc(F)c4c3Cl)C2)N1 [Example 251, 2-((3-chloro-4-fluoro-6-(trifluoromethoxy)-1-benzothiophen-2-yl)carbonyl)-2,5-diazaspiro[3.4]octan-6-one]
99%	O=C1CCC2(CN(C(=O)c3sc4ccc(C(F)(F)F)cc4c3Cl)C2)N1 [Example 256, 2-((3-chloro-5-(trifluoromethyl)-1-benzothiophen-2-yl)carbonyl)-2,5-diazaspiro[3.4]octan-6-one]
100%	O=C1NC2(CO1)CN(C(=O)c1sc3c(C(F)(F)F)cccc3c1Cl)C2 [Example 257, 2-((3-chloro-7-(trifluoromethyl)-1-benzothiophen-2-yl)carbonyl)-7-oxa-2,5-diazaspiro[3.4]octan-6-one]
100%	O=C1NC2(CO1)CN(C(=O)c1sc3ccc(C(F)(F)F)cc3c1Cl)C2 [Example 258, 2-((3-chloro-5-(trifluoromethyl)-1-benzothiophen-2-yl)carbonyl)-7-oxa-2,5-diazaspiro[3.4]octan-6-one]

Further lines, the compound ahead of its results:

Structure (SMILES)	inhibition at 10 µM
Cc1ncccc1-c1ccc2c(Cl)c(C(=O)N3CC4(CCC(=O)N4)C3)sc2c1 [Example 229, 2-((3-chloro-6-(2-methylpyridin-3-yl)-1-benzothiophen-2-yl)carbonyl)-2,5-diazaspiro[3.4]octan-6-one]	100%
O=C1CCC2(CN(C(=O)c3sc4cc(-c5cccnc5C(F)(F)F)ccc4c3Cl)C2)N1 [Example 230, 2-((3-chloro-6-(2-(trifluoromethyl)pyridin-3-yl)-1-benzothiophen-2-yl)carbonyl)-2,5-diazaspiro[3.4]octan-6-one]	100%
O=C1CCC2(CN(C(=O)c3sc4cc(-c5cnc(C(F)(F)F)nc5)ccc4c3Cl)C2)N1 [Example 231, 2-((3-chloro-6-(2-(trifluoromethyl)pyrimidin-5-yl)-1-benzothiophen-2-yl)carbonyl)-2,5-diazaspiro[3.4]octan-6-one]	97%
Cc1cc(-c2ccc3c(Cl)c(C(=O)N4CC5(CCC(=O)N5)C4)sc3c2)c(C)s1 [Example 233, 2-((3-chloro-6-(2,5-dimethyl-3-thienyl)-1-benzothiophen-2-yl)carbonyl)-2,5-diazaspiro[3.4]octan-6-one]	101%
Cc1ccsc1-c1ccc2c(Cl)c(C(=O)N3CC4(CCC(=O)N4)C3)sc2c1 [Example 235, 2-((3-chloro-6-(3-methyl-2-thienyl)-1-benozthiophen-2-yl)carbonyl)-2,5-diazaspiro[3.4]octan-6-one]	100%
Cc1cscc1-c1ccc2c(Cl)c(C(=O)N3CC4(CCC(=O)N4)C3)sc2c1 [Example 236, 2-((3-chloro-6-(4-methyl-3-thienyl)-1-benzothiophen-2-yl)carbonyl)-2,5-diazaspiro[3.4]octan-6-one]	100%
O=C1CCC2(CN(C(=O)N3CCC(C(F)(c4ccccc4)c4ccccc4)CC3)C2)N1 [Example 237, 2-((4-(fluoro(diphenyl)methyl)piperidin-1-yl)carbonyl)-2,5-diazaspiro[3.4]octan-6-one]	101%
O=C1CCC2(CN(C(=O)N3CCC(COc4ccc5c(c4)CCCC5)CC3)C2)N1 [Example 239, 2-((4-((5,6,7,8-tetrahydronaphthalen-2-yloxy)methyl)piperidin-1-yl)carbonyl)-2,5-diazaspiro[3.4]octan-6-one]	101%
O=C1NC2(CO1)CN(C(=O)c1sc3cc(C(F)(F)F)ccc3c1Cl)C2 [Example 241, 2-((3-chloro-6-(trifluoromethyl)-1-benzothiophen-2-yl)carbonyl)-7-oxa-2,5-diazaspiro[3.4]octan-6-one]	101%
O=C1COCC2(CN(C(=O)c3sc4cc(C(F)(F)F)ccc4c3Cl)C2)N1 [Example 242, 2-((3-chloro-6-(trifluoromethyl)-1-benzothiophen-2-yl)carbonyl)-8-oxa-2,5-diazaspiro[3.5]nonan-6-one]	99%
O=C1COCC2(CN(C(=O)N3CCC(COc4ccc(F)cc4Cl)CC3)C2)N1 [Example 243, 2-((4-((2-chloro-4-fluorophenoxy)methyl)piperidin-1-yl)carbonyl)-8-oxa-2,5-diazaspiro[3.5]nonan-6-one]	100%
O=C1CCC2(CN(C(=O)c3sc(-c4cccc(C5(C(F)(F)F)CC5)c4)cc3Cl)C2)N1 [Example 246, 2-((3-chloro-5-(3-(1-(trifluoromethyl)cyclopropyl)phenyl)-2-thienyl)carbonyl)-2,5-diazaspiro[3.4]octan-6-one]	100%
O=C1CCC2(CN(C(=O)c3sc(-c4cccc(OC(F)(F)F)c4)cc3Cl)C2)N1 [Example 248, 2-((3-chloro-5-(3-(trifluoromethoxy)phenyl)-2-thienyl)carbonyl)-2,5-diazaspiro[3.4]octan-6-one]	95%
O=C1CCC2(CN(C(=O)c3sc(-c4ccc(OC(F)(F)F)cc4)cc3Cl)C2)N1 [Example 249, 2-((3-chloro-5-(4-(trifluoromethoxy)phenyl)-2-thienyl)carbonyl)-2,5-diazaspiro[3.4]octan-6-one]	93%
O=C1CCC2(CN(C(=O)c3cc4cc(OC(F)(F)F)ccc4s3)C2)N1 [Example 252, 2-((5-(trifluoromethoxy)-1-benzothiophen-2-yl)carbonyl)-2,5-diazaspiro[3.4]octan-6-one]	98%
O=C1CCC2(CN(C(=O)c3sc4ccc(OC(F)(F)F)cc4c3Cl)C2)N1 [Example 253, 2-((3-chloro-5-(trifluoromethoxy)-1-benzothiophen-2-yl)carbonyl)-2,5-diazaspiro[3.4]octan-6-one]	99%
O=C1CCC2(CN(C(=O)c3sc4c(C(F)(F)F)cccc4c3Cl)C2)N1 [Example 255, 2-((3-chloro-7-(trifluoromethyl)-1-benzothiophen-2-yl)carbonyl)-2,5-diazaspiro[3.4]octan-6-one]	99%
O=C1NC2(CO1)CN(C(=O)c1sc3cc(OC(F)F)ccc3c1Cl)C2 [Example 259, 2-((3-chloro-6-(difluoromethoxy)-1-benzothiophen-2-yl)carbonyl)-7-oxa-2,5-diazaspiro[3.4]octan-6-one]	101%
O=C1CCC2(CN(C(=O)c3sc4cc(OC(F)F)ccc4c3Cl)C2)N1 [Example 260, 2-((3-chloro-6-(difluoromethoxy)-1-benzothiophen-2-yl)carbonyl)-2,5-diazaspiro[3.4]octan-6-one]	100%
O=C1NC2(CO1)CN(C(=O)c1sc3cc(OC(F)(F)F)ccc3c1C(F)(F)F)C2 [Example 261, 2-((6-(trifluoromethoxy)-3-(trifluoromethyl)-1-benzothiophen-2-yl)carbonyl)-7-oxa-2,5-diazaspiro[3.4]octan-6-one]	100%
O=C1NC2(CO1)CN(C(=O)c1sc3ccc(OC(F)(F)F)cc3c1Cl)C2 [Example 262, 2-((3-chloro-5-(trifluoromethoxy)-1-benzothiophen-2-yl)carbonyl)-7-oxa-2,5-diazaspiro[3.4]octan-6-one]	101%
